Measurements from patent US4250170A, “Antibacterial agents Bu-2349A and B and method of using same” (Bristol-Myers Company, priority 1979, dated 1981).
≈ marks a conversion by molar mass, not a printed value. Read-outs that look alike come from different tables or passages of the source.

Key:
[1] = tested on: Staphylococcus aureus Terajima (Sa-33); assay: MIC, two-fold agar dilution; assay type: cell-based; conditions: 18 h, Table 3, Mueller-Hinton agar, 10^-4 dilution
[2] = tested on: Staphylococcus aureus (Sa-77), ANT(4'); assay: MIC, two-fold agar dilution; assay type: cell-based; conditions: 18 h
[3] = tested on: Staphylococcus epidermidis (Si-2), ANT (4'); assay: MIC, two-fold agar dilution; assay type: cell-based; conditions: 18 h, Table 3, Mueller-Hinton agar, 10^-4 dilution, enzyme ANT (4')
[4] = tested on: Mycobacterium phlei D88 (Mp-1); assay: MIC, two-fold agar dilution; assay type: cell-based; conditions: Mycolicibacterium phlei, 18 h; Table 3; Mueller-Hinton agar, 10^-4 dilution
[5] = tested on: Escherichia coli NIHJ (Ec-1); assay: MIC, two-fold agar dilution; assay type: cell-based; conditions: 18 h, Table 3, Mueller-Hinton agar, 10^-4 dilution
[6] = tested on: Escherichia coli (Ec-72), ANT(2"); assay: MIC, two-fold agar dilution; assay type: cell-based; conditions: 18 h, Table 3, Mueller-Hinton agar, 10^-4 dilution, enzyme ANT(2")
Proteus vulgaris (Pv-1) = assay: MIC, two-fold agar dilution; assay type: cell-based; conditions: 18 h, Table 3, Mueller-Hinton agar, 10^-4 dilution
Proteus rettgeri (Pr-2) = assay: MIC, two-fold agar dilution; assay type: cell-based; conditions: Providencia rettgeri, 18 h; Table 3; Mueller-Hinton agar, 10^-4 dilution
[7] = tested on: Serratia marcescens (Sm-2); assay: MIC, two-fold agar dilution; assay type: cell-based; conditions: 18 h, Table 3, Mueller-Hinton agar, 10^-4 dilution
P. vulgaris (Pv-3) = assay: MIC, agar dilution; assay type: cell-based; conditions: Proteus vulgaris, 18 h
Method: (§1) The minimum inhibitory concentrations (MIC) of Bu-2349A and B were determined against a wide variety of bacteria by the two-fold agar dilution method. Mueller-Hinton agar medium was generally used for the determination of bacterial MIC except for species of Streptococcus, Neisseria and Hemophilus for which Gonococcus agar medium (GC agar, Nissui Co., Tokyo) was used. Gifu anaerobe agar medium (GAM agar, Eiken Co., Tokyo) was used for anaerobic bacteria. The MIC's were determined after overnight incubation at 37° C. with an initial inoculum equivalent to a 10^-4 dilution of an 18-hour culture for the aerobic and anaerobic bacteria, except for Streptococcus, Neisseria and Hemophilus for which a 10^-2 dilution was used.
(§2) The influence of inoculum size on MIC was tested on Mueller-Hinton agar using an inoculum of […], 10^-2 or 10^-4 dilution of the overnight culture of test organisms.
(§3) The effect of media pH on the MIC's of Bu-2349A was determined at three pH levels (6, 7 and 8) using Mueller-Hinton agar.
(§4) The media effect on the MIC's of Bu-2349A was tested using four kinds of assay media: Mueller-Hinton agar (MHA), nutrient agar (NA), heart infusion agar (HIA) and brain heart infusion agar (BHIA). The pH was adjusted at 7 and a 10^-4 dilution of overnight culture was used for the inoculum.

S. aureus (Sa-63) = assay: MIC, agar dilution; assay type: cell-based; conditions: Staphylococcus aureus, 18 h
Method: as §1, §2, §3, §4

[8] = tested on: Bacteroides fragilis (Bf-1); assay: MIC against anaerobic bacteria; assay type: cell-based; conditions: 18 h, Table 4, GAM Medium, pH 7
[9] = tested on: Bacteroides fragilis (Bf-7); assay: MIC against anaerobic bacteria; assay type: cell-based; conditions: 18 h, Table 4, GAM Medium, pH 7
[10] = tested on: Sphaerophorus necrophorus (Sn-1); assay: MIC against anaerobic bacteria; assay type: cell-based; conditions: Fusobacterium necrophorum, 18 h; Table 4; GAM Medium, pH 7
[11] = tested on: Veillonella parvula ATCC 17745 (Vp-1); assay: MIC against anaerobic bacteria; assay type: cell-based; conditions: ATCC17745, 18 h, Table 4, GAM Medium, pH 7
[12] = tested on: Clostridium perfringens (Cp-1); assay: microbe, parasite or virus in culture; assay type: cell-based; conditions: 18 h, pH 7
[13] = tested on: Peptostreptococcus anaerobium B43 (Pb-1); assay: MIC against anaerobic bacteria; assay type: cell-based; conditions: 18 h, Table 4, GAM Medium, pH 7
[14] = tested on: Peptococcus aerogenes ATCC 14963 (Pe-101); assay: MIC against anaerobic bacteria; assay type: cell-based; conditions: Peptoniphilus asaccharolyticus, ATCC14963, 18 h; Table 4; GAM Medium, pH 7
[15] = tested on: S. aureus, E. coli, K. pneumoniae, P. vulgaris and P. mirabilis; assay: experimental infections in mice, overall statement; assay type: in vivo; conditions: im
Method: The in vivo antibacterial activity of Bu-2349A was determined by experimental infections in mice. Mice were challenged via the intraperitoneal route with a 100 X LD50 dose of the pathogens in a 5% suspension of hog gastric mucin (American Laboratories, Omaha, Neb.). Bu-2349A was administered by the intramuscular route immediately after the bacterial challenge.

[16] = pH 6, Table 6, Mueller-Hinton Agar, 10^-4 dilution, pH 6, read-out: MIC
[17] = pH 7, Table 5, Mueller-Hinton Agar, pH 7, inoculum 10^-2 dil., read-out: MIC
[18] = pH 7, Table 5, Mueller-Hinton Agar, pH 7, inoculum 10^-4 dil., read-out: MIC
[19] = pH 7, Table 6, Mueller-Hinton Agar, 10^-4 dilution, pH 7, read-out: MIC
[20] = pH 7, Table 7, pH 7, 10^-4 dilution, BHIA, read-out: MIC
[21] = pH 7, Table 7, pH 7, 10^-4 dilution, HIA, read-out: MIC
[22] = pH 7, Table 7, pH 7, 10^-4 dilution, MHA, read-out: MIC
[23] = pH 7, Table 7, pH 7, 10^-4 dilution, NA, read-out: MIC
[24] = pH 8, Table 6, Mueller-Hinton Agar, 10^-4 dilution, pH 8, read-out: MIC

For `C=C1OC(OC2C(CO)OC(Oc3ccc(C(=O)NCCCNCCCCNCCCCN)cc3)C2O)C(O)C(OC2OC(CO)C(OC3OC(C)C(N)C(O)C3NC(=O)C(C)N)C(O)C2O)C1O` (stereo not shown) [Bu-2349A], the MIC [1] was 1.6 µg/mL (≈ 1.62 µM), the MIC [2] was 12.5 µg/mL (≈ 12.6 µM) and the MIC [3] was 3.1 µg/mL (≈ 3.13 µM). The MIC [4] was 3.1 µg/mL (≈ 3.13 µM), the MIC [5] was 1.6 µg/mL (≈ 1.62 µM) and the MIC [6] was 1.6 µg/mL (≈ 1.62 µM). For the same molecule, the MIC (Proteus vulgaris (Pv-1)) was 1.6 µg/mL (≈ 1.62 µM), the MIC (Proteus rettgeri (Pr-2)) was 0.8 µg/mL (≈ 0.808 µM) and the MIC [7] was 25 µg/mL (≈ 25.2 µM). The MIC (P. vulgaris (Pv-3); [16]) was greater than 50 µg/mL, the MIC (P. vulgaris (Pv-3); pH 7) was 12.5 µg/mL (≈ 12.6 µM) and the MIC (P. vulgaris (Pv-3); [17]) was 6.3 µg/mL (≈ 6.36 µM). It also gave an MIC (P. vulgaris (Pv-3); [18]) of 6.3 µg/mL (≈ 6.36 µM), an MIC (P. vulgaris (Pv-3); [19]) of 6.3 µg/mL (≈ 6.36 µM) and an MIC (P. vulgaris (Pv-3); [20]) of 3.1 µg/mL (≈ 3.13 µM). It also gave an MIC (P. vulgaris (Pv-3); [21]) of 1.6 µg/mL (≈ 1.62 µM), an MIC (P. vulgaris (Pv-3); [22]) of 3.1 µg/mL (≈ 3.13 µM) and an MIC (P. vulgaris (Pv-3); [23]) of 1.6 µg/mL (≈ 1.62 µM). The MIC (P. vulgaris (Pv-3); [24]) was 6.3 µg/mL (≈ 6.36 µM), the MIC (S. aureus (Sa-63); [16]) was greater than 50 µg/mL and the MIC (S. aureus (Sa-63); pH 7) was 12.5 µg/mL (≈ 12.6 µM). For the same molecule, the MIC (S. aureus (Sa-63); [17]) was 6.3 µg/mL (≈ 6.36 µM), the MIC (S. aureus (Sa-63); [18]) was 6.3 µg/mL (≈ 6.36 µM) and the MIC (S. aureus (Sa-63); [19]) was 6.3 µg/mL (≈ 6.36 µM). For the same molecule, the MIC (S. aureus (Sa-63); [20]) was 6.3 µg/mL (≈ 6.36 µM), the MIC (S. aureus (Sa-63); [21]) was 3.1 µg/mL (≈ 3.13 µM) and the MIC (S. aureus (Sa-63); [22]) was 6.3 µg/mL (≈ 6.36 µM). For the same molecule, the MIC (S. aureus (Sa-63); [23]) was 6.3 µg/mL (≈ 6.36 µM), the MIC (S. aureus (Sa-63); [24]) was 3.1 µg/mL (≈ 3.13 µM) and the MIC [8] was greater than 100 µg/mL. For the same molecule, the MIC [9] was greater than 100 µg/mL, the MIC [10] was greater than 100 µg/mL and the MIC [11] was greater than 100 µg/mL. The MIC [12] was greater than 100 µg/mL, the MIC [13] was greater than 100 µg/mL and the MIC [14] was greater than 100 µg/mL. For the same molecule, the “protection against systemic lethal infections” value [15] was “good protection”.
